Measured values from US20230338531A1, “COMPOSITIONS AND USES OF CD45 TARGETED CHIMERIC ANTIGEN RECEPTOR MODIFIED T CELLS” (City of Hope, priority 2020, published 2023).

How the values were obtained:
[1] = test system: iCasp9-CD45-CAR lentivirus transduced HT1080 cells; test: Induced cell depletion by iCasp9 safety switch; type: cell-based; details: 100 μM, 24h, normalized to non-treated group
Description: To test the effects of a suicide switch as a safety precaution, experiments were conducted to investigate the induced cell depletion effect of rimiducid on iCasp9-CD45-CAR lentivirus transduced cells. iCasp9 can be activated by a specific chemical inducer of dimerization (CID) such as rimiducid, leading to efficient elimination of iCasp9 engineered cell.
The order of iCaspase 9 and CD45 scFv components can be switched (e.g., promoter-CD45CAR-T2A-iCaspase9-etc). HT1080 cells were transduced by lentivirus. […] Transduced HT1080 cells were seeded in 24 well plate and treated with 100 μM ramiducid for 24h normalized and compared to non-treated group, and the relative survival cell number was quantified (FIG. 10C). Treating the iCasp9-CD45-CAR cells with ramiducid reduced cell survival to 36% (FIG. 10C).

PTPRC (CD45) gene = test: CD45 protein expression after PTPRC (CD45) gene knockout by CRISPR/Cas9; type: cell-based; details: T cells after CRISPR/cas9 mediated CD45KO vs wild type
Excerpt: FIGS. 11A-11B show CD45 protein expression profile after PTPRC (CD45) gene knockout by CRISPR/Cas9 gene editing.
Cell Isolation, CD45 gene editing, CD45-CAR Lentiviral Transduction, and Ex Vivo Expansion_Leukapheresis products were obtained from consented research participants (healthy donors) under protocols approved by the City of Hope Internal Review Board (IRB). On the day of leukapheresis, peripheral blood mononuclear cells (PBMC) were isolated by density gradient centrifugation over Ficoll-Paque (GE Healthcare) followed by multiple washes in PBS/EDTA (Miltenyi Biotec). Cells were rested overnight at room temperature (RT) on a rotator, and subsequently washed and resuspended in X-VIVO T cell medium (Lonza) containing 10% FBS (complete X-VIVO). Up to 5.0×10^9 PBMC were incubated with anti-CD14 and anti-CD25 microbeads (Miltenyi Biotec) for 30 min at RT and magnetically depleted using the CliniMACS® system (Miltenyi Biotec) according to the manufacturer's protocol and these were termed depleted PBMCs (dPBMC). dPBMC were frozen in CryoStor® CS5 (StemCell Technologies) until further processing. […]
Experiments were then conducted to quantify the CD45 protein expression on wild type and CD45 knock out T cells after PTPRC (CD45) gene knockout by CRISPR/Cas9 gene editing. hCD45gRNA #3_E12, […] […]

## CC[C@H](C(=O)N1CCCC[C@H]1C(=O)O[C@H](CCc1ccc(OC)c(OC)c1)c1cccc(OCC(=O)NCCNC(=O)COc2cccc([C@@H](CCc3ccc(OC)c(OC)c3)OC(=O)[C@@H]3CCCCN3C(=O)[C@@H](CC)c3cc(OC)c(OC)c(OC)c3)c2)c1)c1cc(OC)c(OC)c(OC)c1 [ramiducid]
[1]
  relative survival cell number: 36%

## CUUCUACAAAAAAUAAUCUG (SEQ ID NO: 39) (listed as RNA, chemistry not given here) [hCD45gRNA #3_E12, gRNA targeting PTPRC exon 12]
PTPRC (CD45) gene
  CD45 expression (flow cytometry, MFI): decreasing expression of CD45
